In brackets after ≈: the same amount, converted by molar mass. Residues, ends and D or L forms follow the SMILES beside them.

This assay relates to P388. The assay is described as follows: Growth inhibition of mouse P388 cells. Format: functional. Conditions: read-out: ED50 (the source's name).

For `CC[C@H](C)[C@@H]1NC(=O)[C@@H]2CCCN2C(=O)[C@H](Cc2ccccc2)NC(=O)[C@@H]2CCCN2C(=O)[C@H](Cc2ccc(O)cc2)NC(=O)[C@@H]2CCCN2C(=O)[C@H]([C@@H](C)CC)NC1=O.Cl` [PHAKELLISTATIN 2 (SYNTHETIC)] (cyclo(FPIIPYP)), the EC50 worked out at 24 µg/mL.

Turning to `CC[C@H](C)[C@@H]1NC(=O)[C@@H]2CCCN2C(=O)[C@H](Cc2ccccc2)NC(=O)[C@@H]2CCCN2C(=O)[C@H](Cc2ccc(O)cc2)NC(=O)[C@@H]2CCCN2C(=O)[C@H]([C@@H](C)CC)NC1=O` [PHAKELLISTATIN 2] (cyclo(FPIIPYP)), the EC50 stood at 0.34 µg/mL (≈ 0.411 µM).

Source of the values: ChEMBL document CHEMBL1157281, “Antineoplastic agents. 400. Synthesis of the Indian Ocean marine sponge cyclic heptapeptide phakellistatin 2” (1999).
